Row | SMILES | pKa
1 | Cc1nc(C#Cc2ccnc(Cl)c2)c(C)n1-c1ccc(F)cc1 | 4.35
2 | CC(C)Nc1nc(Nc2ccc(C(N)=O)cc2)c2sccc2n1 | 6.3
3 | CC(=O)Nc1cccc(Nc2nc(Nc3ccccc3)n3ncc(C#N)c3n2)c1 | 9.7
4 | CCN(CC)c1ncnc2c1cnn2C | 4.2
5 | O=C(Nc1nccs1)C(CC1CCCC1)c1ccc(Cl)cc1 (stereo not drawn) | 10.5
6 | N#Cc1cnc(NC(=O)Nc2ccc(Cl)c(Cl)c2)s1 | 7.5
7 | CC(C)Oc1ccc(Cc2ccc(NC3=[NH+]CCN3)cc2)cc1 | 10.5
8 | Cc1cc(C)nc(N2CCC3(CCCN(Cc4nn(C)cc4-c4ccccc4)C3=O)CC2)n1 | 4.75
9 | Cc1ccc(C)n1-c1ccc(C(=O)[O-])c(O)c1 | 2.3
10 | O=C(/C=C/c1ccc(Br)cc1)N1CC[NH+](Cc2ccccc2)CC1 | 6.1

Continued, values first:

Row | pKa | SMILES
11 | 3.8 | COc1ccc2nccc(-n3cc4c(n3)CCC(NC(=O)c3ccc5c(c3)NC(=O)CS5)C4)c2n1 (stereo not drawn)
12 | 4.8 | c1ccc(-c2nc3n(c2-c2ccccc2)CCS3)cc1
13 | 6.5 | COc1ccc(Nc2ccc3ccccc3n2)cc1
14 | 8.4 | O=C(NO)C1c2ccccc2Oc2ccccc21
15 | 5.1 | O=C(CSc1nccn1C1CCCC1)Nc1ccc(C(F)(F)F)cc1
16 | 8.9 | COc1cc2c(cc1OC)CN(c1cc(N)c3cc(OC)c(OC)cc3[nH+]1)CC2
17 | 3.3 | O=C(Nc1ccccc1C(=O)[O-])c1cccc(Oc2ccccc2)c1
18 | 9.4 | COc1ccc(N2CCOCC2)c2sc(NC(=O)N3CCC(C)(O)CC3)nc12
19 | 3.6 | O=C1N(Cc2ccccc2)CCCC12CCN(c1cnc3ccccc3n1)CC2
20 | 6.9 | Nc1nc(-c2ccccc2)cc2ccccc12
21 | 2.9 | COC(=O)/C=C/C(=O)[O-]
22 | 3.7 | N#Cc1c(-c2ccc(Cl)cc2)nc(SCC(=O)Nc2ccc(Cl)cc2)[nH]c1=O
23 | 4.45 | Cc1nc(C(=O)[O-])ccc1N(C)Cc1cccc(Cl)c1

Remark: another data set of the same source

Row | SMILES | pKa
24 | Cc1ccc(Nc2ncc(C(=O)N3CCCCC3)cc2Cl)cn1 | 5.2
25 | CCOc1ccc2nc(S(N)(=O)=O)sc2c1 | 8.36
26 | COc1ccc(C#CC(C)(C)[NH3+])cc1C(=O)c1ccc(Nc2ccc(F)cc2F)cc1 | 8.1
27 | CC(C)(C)c1ccc(S(=O)(=O)Nc2ccc(Cl)cc2C(=O)c2cc[n+]([O-])cc2)cc1 | 6.87
28 | COc1cccc(OC)c1-c1ccc(C[C@H](NC(=O)c2c(Cl)cccc2Cl)C(=O)[O-])cc1 | 3.41
29 | COc1ccc(OC)c(CNc2ccc3nc(N)nc(N)c3c2Cl)c1 | 7.1
30 | CC1CCCN(C(=O)c2ccc(Nc3ccc(Cl)cc3)nc2)C1 (stereo not drawn) | 3.4
31 | CC(=C(C#N)C#N)c1ccc2cc(N(C)CCF)ccc2c1 | 2.4
32 | COc1ccc(SC)c2c1C[C@@H]1[C@@H](C2)OCC[NH+]1C | 6.25
33 | Cn1c(N)nc2ccccc2c1=O | 5.2
34 | O=NC(=O)CCc1ccc(C[NH+]2CCC(c3c[nH]c4ccccc34)CC2)cc1 | 8.55
35 | Cn1c(-c2ccc(C[NH+](C)C)cc2)cc2onc(-c3ccccc3)c2c1=O | 8.38
36 | O=C([O-])c1ccc(NC(=O)c2cn(-c3ccccc3)nc2-c2ccc(Cl)cc2)cc1 | 4.2
37 | Cc1cccc(C)c1C(=O)N1CCC(C)([NH+]2CCC(N(c3ccccc3)c3ccccc3)CC2)CC1 | 8.35
38 | CN(CCO)c1cc2c(=O)n(NS(C)(=O)=O)c(=O)[nH]c2cc1C(F)(F)F | 8.3
39 | Cc1ccc(-c2cc(C(F)(F)F)nn2-c2ccc(S(N)(=O)=O)cc2)cc1 | 9.46
40 | CC(C)[NH+](CCc1c[nH]c2ccccc12)Cc1ccc(CCC(=O)N=O)cc1 | 8.66

Row | SMILES | pKa
41 | N#Cc1ncc2cc(COc3ccc(C(=O)[O-])cc3)n(CCC3CCCCC3)c2n1 | 4.2
42 | Cc1ncccc1Oc1ncnc(OC2CCN(C(=O)OC(C)C)CC2)c1C | 4.18
43 | COc1cc(CN(CC(=O)NCc2ccccc2Cl)S(=O)(=O)c2ccc(CN3CC[NH+](C)CC3)cc2)ccc1OCC(C)C | 7.17
44 | CCOC(=O)c1c(C)cc2nc(COC(=O)NCCO)n(-c3ccccc3S(=O)(=O)NC)c(=O)c2c1C | 10.6
45 | CC(C)N(CCCCOCC(=O)[O-])c1cnc(-c2ccccc2)c(-c2ccccc2)n1 | 3.38
46 | CS(=O)(=O)Nn1c(=O)[nH]c2cc(C(F)(F)F)c(N)cc2c1=O | 8.6
47 | NC1=[NH+]c2ccccc2CC1 | 9.55
48 | Clc1ccc(-c2ccc(-c3ccnc(N4CC[NH2+]CC4)n3)s2)cc1 | 8.9
49 | Cc1nc[n+]([O-])c(C)c1C(=O)N1CCC(C)([NH+]2CCC(N(c3ccccc3)c3ccccc3)CC2)CC1 | 8.5
50 | Fc1ccc([C@H]2CC[NH2+]C[C@@H]2COc2ccc3c(c2)OCO3)cc1 | 9.5
51 | CC(C)[NH+](CCc1c(C(C)(C)O)[nH]c2ccccc12)Cc1ccc(CCC(=O)N=O)cc1 | 9.01
52 | CC(C)n1c(/C=C/[C@H](O)C[C@H](O)CC(=O)[O-])c(-c2ccc(F)cc2)c2ccccc21 | 4.5
53 | Cc1ncc(-c2ccc(C(F)(F)F)cc2)c(NC2CCCCCC2)n1 | 6
54 | O=C1CN=C(c2ccccc2)c2cc3ccccc3cc2N1 | 3.8
55 | CS(=O)(=O)c1ccc(-c2nc3c(c(=O)[nH]2)COCC3)cc1 | 7.31
56 | [NH3+]C(CO)c1ccccc1 (stereo not drawn) | 8.4
57 | Cc1[nH]c2ccccc2c1CC[NH+]1CCc2cc(CCC(=O)N=O)ccc2C1 | 7.96

Continued, values first:

Row | pKa | SMILES
58 | 7.24 | CC(C)Cn1cnc2c(N)nc3ccccc3c21
59 | 6.07 | COc1ccc(-c2c(C)nc3c(-c4ccccn4)cnn3c2N)cc1
60 | 3.37 | CCCCC[C@H](O)CC[C@@H]1[C@H]2Cc3cccc(OCC(=O)[O-])c3C[C@H]2C[C@H]1O
61 | 9.3 | O=C1NC(=O)C(c2c[nH]c3ccccc23)=C1c1nc(N2CCOCC2)nc2ccccc12
62 | 9.2 | CNC(=O)c1c(NCC2CCC3(CCC3)CC2)nc(C#N)nc1OC1CC(C)(C)[NH2+]C(C)(C)C1
63 | 4.31 | CC(=O)N1CCC(CNc2nc3c(s2)CCCc2ccc(F)cc2-3)CC1
64 | 8.26 | NS(=O)(=O)Oc1ccc2nc(C=C3C4CC5CC(C4)CC3C5)oc2c1
65 | 10.2 | CNC(=O)c1c(NCC2CCC3(CCC3)CC2)nc(C#N)nc1OCCC1CC[NH+](C)CC1
66 | 9.2 | CC[C@H](C(=O)NO)[C@H](C(=O)N1CCCC[C@H]1C(=O)NC)c1ccc(Cl)cc1
67 | 8.2 | COc1cc(C(C)=O)ccc1OCCC[NH+]1CCC(c2noc3cc(F)ccc23)CC1
68 | 3 | CCN1c2ccc(C#N)cc2N=C(c2ccc(C(=O)[O-])c(F)c2)c2cc3c(cc21)C(C)(C)CCC3(C)C
69 | 2.9 | C=CCNc1ccc2c(c1)c(-c1ccc(C(C)C)cc1)nc(=O)n2C(C)C
70 | 5.3 | CCC1CCCCN1C(=O)c1cnc(Nc2ccc(C)nc2)c(Cl)c1 (stereo not drawn)
71 | 4.28 | Cc1nc(N2CCN(Cc3ccccc3)C2=O)sc1C(=O)NCc1ccccn1
72 | 9 | Cc1nc2cccc(C(F)(F)F)c2c(=O)n1-c1ccc(OC2CC[NH+](C3CCC3)CC2)cc1
73 | 8.52 | CCCCCCCCc1ccc(CCC([NH3+])(CO)CO)cc1
74 | 3.6 | CC(=O)N1CCN(c2ccc(OCc3cc4cnc(C#N)nc4n3CCC3CCC(F)(F)CC3)cc2)CC1
75 | 4.1 | O=C([O-])c1ccc(-c2nc(-c3cccc(C(F)(F)F)c3)cs2)cc1
76 | 6 | Cc1ncc(-c2ccc(C(F)(F)F)cc2)c(NC2C3CC4CC(C3)CC2C4)n1 (stereo not drawn)
77 | 8.35 | CS(=O)(=O)Nn1c(=O)[nH]c2cc(C(F)(F)F)ccc2c1=O
78 | 8.2 | CC(C)COC(=O)Nc1ccc(-c2cnc3c(-c4ccc(N5CC[NH+](C)CC5)cc4)cnn3c2N)cc1
79 | 2.1 | CC(C)(C)OC(=O)N1CCC(C(=O)NS(=O)(=O)c2c(Cl)sc(Cl)c2Br)CC1
80 | 4.2 | Cc1ccnc(N2CCC3(CCCN(Cc4c[nH]c5ccccc45)C3=O)CC2)n1
81 | 3.84 | CS(=O)(=O)c1ccc(C(=O)Nc2ccc(Cl)c(-c3ccccn3)c2)c(Cl)c1
82 | 3.86 | Cc1c(CC(=O)[O-])c2cccnc2n1S(=O)(=O)c1ccc(Cl)cc1
83 | 4.94 | Cc1cc(C)nc(N2CCC3(CCCN(Cc4c[nH]c5ccccc45)C3=O)CC2)n1

Row | pKa | SMILES
84 | 3.9 | O=C([O-])c1ccc(-c2ccccc2)cc1
85 | 9.1 | COc1ccc(-c2ccc(C(=O)Nc3ccc4c(c3)CCC(C[NH+](C)C)C4)cc2)cc1 (stereo not drawn)
86 | 8.25 | COc1cc(C(C)O)ccc1OCCC[NH+]1CCC(c2noc3cc(F)ccc23)CC1 (stereo not drawn)
87 | 5.6 | COc1ccc(SCCc2ccncc2)cc1
88 | 8.77 | O=C(NCC[NH+]1CCC(n2c(=O)[nH]c3cc(F)ccc32)CC1)c1ccc(F)cc1
89 | 4.1 | O=C(Nc1cccc2cnccc12)c1ccc(-c2ccccc2)cc1
90 | 3.5 | CN1c2ccc(C#N)cc2N=C(c2ccc(C(=O)[O-])cc2)c2cc3c(cc21)C(C)(C)CCC3(C)C
91 | 4.42 | O=c1[nH]c2c(Cc3nn[n-]n3)c3ccccc3n2c2ccccc12
92 | 10.9 | COc1ccc(CNC(=O)[C@@H](NC(=O)[C@H](Cc2ccc(OC)c(OC)c2)NC(=O)Cc2cccc(Oc3ccccc3)c2)C(C)C)c(O)c1
93 | 8.85 | O=NC(=O)CCc1ccc(C[NH2+]CC23CC4CC(CC(C4)C2)C3)cc1
94 | 4.7 | Cc1nc2ccccn2c1C(=O)NCc1ccc(-c2ccccc2)cc1
95 | 7.9 | C[NH+](CCC(=O)N1CCN(c2ccc(F)c(F)c2)CC1)CCC1c2ccccc2Oc2ccccc21
96 | 5.9 | CC(=O)Nc1cc(Cl)ccc1/C=C/C(=O)N1CC[NH+](Cc2ccc(F)cc2)C[C@H]1C
97 | 6.8 | CCc1ccc(-c2cnc(C)nc2NC2CCCC2)cc1
98 | 5.28 | COc1ccnc(N2CCC3(CCCN(Cc4c[nH]c5ccccc45)C3=O)CC2)n1
99 | 6.8 | Cn1c(=O)n(NS(C)(=O)=O)c(=O)c2ccc(Cl)cc21
100 | 9.2 | CC(C)(C)Cn1c(CN2C(=O)CC3(CC[NH2+]CC3)C2=O)cc2cnc(C#N)nc21
101 | 7.32 | COc1ccc(OC)c(S(=O)(=O)N2CCC(CN3CC[NH+](Cc4ccc(F)cc4)CC3)CC2)c1
102 | 8.35 | CS(=O)(=O)Nn1c(=O)[nH]c2cc(C(F)(F)F)c(N3CCOCC3)cc2c1=O
103 | 6.37 | COc1ccc(N2CCc3c(-n4ccc(N5CCNC5=O)n4)cc(C)nc32)c(C)c1
104 | 4.63 | Cc1ccc(-c2ncc(Cl)cc2-c2ccc(S(C)(=O)=O)cc2)cn1
105 | 7.74 | Cc1c(-c2ccccc2)c(=O)oc2cc(O)ccc12
106 | 8.59 | Cc1[nH]c2ccccc2c1C1CC[NH+](Cc2ccc(CCC(=O)N=O)cc2)C1 (stereo not drawn)
107 | 10.7 | CNC(=O)c1c(NCC2CCC3(CCC3)CC2)nc(C#N)nc1OCC1CC[NH+](C)CC1
108 | 7.94 | O=c1[nH]c(-c2ccc(C(F)(F)F)cc2)nc2c1CSCC2
